Measurements as given in patent publication US20030092739A1, “Heterocyclic compounds” (priority 2001, published 2003).
Where two headings read alike, the source gives them in different places.

Tested on: aphids
Experiment: Biological Test On Aphid (spray on cabbage leaf in Petri dish)
Format: in vivo
Settings: for Number of dead aphids 1st: 1st replicate; for Number of dead aphids 1st / Number of dead aphids 2nd / Number of dead aphids 3rd / Number of dead aphids 4th: 20 aphids on cabbage leaf, 9.6% w/w pesticide reagent diluted 1000 times with water, sprayed, examined 24 hours later; for Number of dead aphids 2nd: 2nd replicate; for Number of dead aphids 3rd: 3rd replicate; for Number of dead aphids 4th: 4th replicate; for pest or weed control at 96 µg/mL: read-out: Kill ratio; for Number of dead aphids Average: average of four replicates
Protocol: The compound obtained from Example 1 was mixed with a solvent to form a 9.6% w/w pesticide reagent. An 8 cm×8 cm piece of clean cabbage leaf was placed on a lump of wet cotton in a Petri dish, and then 20 aphids were put on the cabbage leaf in the Petri dish. The thus formed pesticide reagent was diluted 1000 times with water to form a dilution that was then sprayed onto the cabbage leaf in the Petri dish with a predetermined amount. The number of dead aphids was examined 24 hours later, and the kill ratio was calculated. The test was carried out through four replicates.
Example 9 was repeated, except that the compound employed in Example 9 was replaced by the compound obtained from a respective one of the Examples 2 to 8.
Example 9 was repeated, except that the compound employed in Example 9 was replaced by imidachloprid, a heterocyclic compound of the formula disclosed in U.S. Pat. No. 4,742,060 that can be useful as pesticides.

[1] = 20 aphids, 9.6% w/w reagent diluted 1000 times, 24 hours
[2] = calculated from number of dead aphids, 20 aphids, 9.6% w/w reagent diluted 1000 times, 24 hours, four replicates

`CNC(=O)Nc1nc2ccccc2n1Cc1ccc(Cl)nc1` [Example 15, 1-[1-(6-chloro-pyridin-3-ylmethyl)-1H-benzoimidazol-2-yl]-3-mehtyl-urea] was tested, and the “Number of dead aphids 1st” value was 17, the “Number of dead aphids 2nd” value was 17 and the “Number of dead aphids 3rd” value was 16. For the same compound, the “Number of dead aphids 4th” value was 16, the pest or weed control at 96 µg/mL (24 h) was 82% and the “Number of dead aphids Average” value [1] was 16.5.
With `O=[N+]([O-])/N=C1\NCCN1Cc1ccc(Cl)nc1` [Comparative Example 1, imidachloprid, reference compound] the “Number of dead aphids 1st” value was 17, the “Number of dead aphids 2nd” value was 17 and the “Number of dead aphids 3rd” value was 18. For the same compound, the “Number of dead aphids 4th” value was 17, the “Number of dead aphids Average” value [1] was 17.25 and the Kill ratio [2] was 85.90.
For `Clc1ccc(COc2cccc3ccccc23)cn1` [Example 13, 2-chloro-5-(naphthalen-1-yloxymethyl)-pyridine], the “Number of dead aphids 1st” value was 18, the “Number of dead aphids 2nd” value was 17 and the “Number of dead aphids 3rd” value was 16. The “Number of dead aphids 4th” value was 17, the “Number of dead aphids Average” value [1] was 17 and the pest or weed control at 96 µg/mL [2] was 84.6%.
In the case of `CC(C)Oc1ccccc1OCc1ccc(Cl)nc1` [Example 11, 2-chloro-5-(2-isopropoxy-phenoxymethyl)-pyridine], the “Number of dead aphids 1st” value is reported as 16, the “Number of dead aphids 2nd” value is reported as 19 and the “Number of dead aphids 3rd” value is reported as 18. The “Number of dead aphids 4th” value was 18, the “Number of dead aphids Average” value [1] was 17.75 and the pest or weed control at 96 µg/mL [2] was 88.5%.
For `CSc1c(C)cc(OCc2ccc(Cl)nc2)cc1C` [Example 12, 2-chloro-5-(3,5-dimethyl-4-methylsulfanyl-phenoxymethyl)-pyridine], the “Number of dead aphids 1st” value was 20, the “Number of dead aphids 2nd” value was 19 and the “Number of dead aphids 3rd” value was 19. The “Number of dead aphids 4th” value was 19, the “Number of dead aphids Average” value [1] was 19.25 and the pest or weed control at 96 µg/mL [2] was 96.2%.
In the case of `CS/C(C)=N/OCc1ccc(Cl)nc1` [Example 10, N-(6-chloro-pyridin-3-ylmethoxy)-thioacetimidic Acid Methyl Ester], the “Number of dead aphids 1st” value is reported as 18, the “Number of dead aphids 2nd” value is reported as 17 and the “Number of dead aphids 3rd” value is reported as 18. The “Number of dead aphids 4th” value was 17, the “Number of dead aphids Average” value [1] was 17.5 and the pest or weed control at 96 µg/mL [2] was 87.2%.
For `CNC(=O)Nc1nc2ccccc2n1Cc1csc(Cl)n1` [Example 16, 1-[1-(2-chloro-thiazol-4-ylmethyl)-1H-benzoimidazol-2-yl]-3-methyl-urea], the “Number of dead aphids 1st” value was 19, the “Number of dead aphids 2nd” value was 16 and the “Number of dead aphids 3rd” value was 16. The “Number of dead aphids 4th” value was 16, the “Number of dead aphids Average” value [1] was 16.75 and the pest or weed control at 96 µg/mL [2] was 83.3%.
`CC1(C)Cc2cccc(OCc3ccc(Cl)nc3)c2O1` [Example 14, 2-chloro-5-(2,2-dimethyl-2,3-dihydro-benzofuran-7-yloxymethyl)-pyridine] was tested, and the “Number of dead aphids 1st” value was 17, the “Number of dead aphids 2nd” value was 16 and the “Number of dead aphids 3rd” value was 18. The “Number of dead aphids 4th” value was 16, the “Number of dead aphids Average” value [1] was 16.75 and the pest or weed control at 96 µg/mL [2] was 83.3%.
For `N#CNCc1ccc(Cl)nc1` [Example 9, 6-chloro-pyridin-3-ylmethyl-cyanamide], the “Number of dead aphids 1st” value was 19, the “Number of dead aphids 2nd” value was 19 and the “Number of dead aphids 3rd” value was 20. For the same compound, the “Number of dead aphids 4th” value was 20, the pest or weed control at 96 µg/mL (24 h) was 96.2% and the “Number of dead aphids Average” value [1] was 19.25.
